Values after ≈ are worked out from the molar mass of the structure shown.
Legend:
MCF7 = assay: Antiproliferative activity against human MCF7 cells after 48 hrs by MTT assay; type: functional, cell-based; details: MCF7, 48 h
HeLa = assay: Antiproliferative activity against human HeLa cells after 48 hrs by MTT assay; type: functional, cell-based
Homo sapiens [1] = species on record: Homo sapiens; assay: Selectivity ratio of IC50 for human HDAC2 to IC50 for recombinant human full length HDAC6 expressed in baculovirus infected Sf9 insect cells
Homo sapiens [2] = species on record: Homo sapiens; assay: Selectivity ratio of IC50 for recombinant human full length HDAC1 expressed in baculovirus infected Sf9 insect cells to IC50 for recombinant human full length HDAC6 expressed in baculovirus infected Sf9 insect cells
[3] = target: T1, Protein deacetylase HDAC6 (Homo sapiens, UniProt Q9UBN7); assay: Inhibition of recombinant human full length HDAC6 expressed in baculovirus infected Sf9 insect cells using RHKKAC as substrate incubated for 5 to 10 mins followed by substrate addition measured after 2 hrs by fluorescence assay
T1 sequence (Q9UBN7 whole entry): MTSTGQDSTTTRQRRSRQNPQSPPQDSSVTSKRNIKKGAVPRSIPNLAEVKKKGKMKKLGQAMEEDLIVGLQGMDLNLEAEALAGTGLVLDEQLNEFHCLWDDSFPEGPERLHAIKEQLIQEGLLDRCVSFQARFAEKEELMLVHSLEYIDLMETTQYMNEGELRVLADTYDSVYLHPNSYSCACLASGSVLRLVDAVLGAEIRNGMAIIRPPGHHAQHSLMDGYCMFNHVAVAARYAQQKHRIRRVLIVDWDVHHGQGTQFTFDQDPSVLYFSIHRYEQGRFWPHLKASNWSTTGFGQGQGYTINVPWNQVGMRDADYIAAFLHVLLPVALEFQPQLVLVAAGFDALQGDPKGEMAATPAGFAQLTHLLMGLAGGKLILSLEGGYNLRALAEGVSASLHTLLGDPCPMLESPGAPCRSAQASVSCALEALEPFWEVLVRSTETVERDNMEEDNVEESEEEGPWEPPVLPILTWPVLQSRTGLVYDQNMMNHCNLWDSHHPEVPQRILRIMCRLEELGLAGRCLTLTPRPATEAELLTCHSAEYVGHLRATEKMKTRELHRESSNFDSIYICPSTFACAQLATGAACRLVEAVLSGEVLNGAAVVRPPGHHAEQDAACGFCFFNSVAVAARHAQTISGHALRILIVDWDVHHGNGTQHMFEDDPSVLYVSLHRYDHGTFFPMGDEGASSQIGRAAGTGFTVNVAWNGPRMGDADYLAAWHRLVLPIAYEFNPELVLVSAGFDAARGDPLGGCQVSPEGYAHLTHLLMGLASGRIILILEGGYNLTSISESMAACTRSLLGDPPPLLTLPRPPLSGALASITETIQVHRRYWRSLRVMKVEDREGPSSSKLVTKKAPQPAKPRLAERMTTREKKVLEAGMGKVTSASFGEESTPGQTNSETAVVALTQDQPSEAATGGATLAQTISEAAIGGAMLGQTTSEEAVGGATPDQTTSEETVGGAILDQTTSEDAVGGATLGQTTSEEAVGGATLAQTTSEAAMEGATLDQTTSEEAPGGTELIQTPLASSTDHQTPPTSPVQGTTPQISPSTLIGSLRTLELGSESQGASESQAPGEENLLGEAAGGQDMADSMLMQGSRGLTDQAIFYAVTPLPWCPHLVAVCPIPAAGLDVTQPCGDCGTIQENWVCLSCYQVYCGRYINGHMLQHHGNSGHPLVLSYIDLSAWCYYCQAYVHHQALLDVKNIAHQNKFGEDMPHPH

Homo sapiens [4] = species on record: Homo sapiens; assay: Selectivity ratio of IC50 for human HDAC3 to IC50 for recombinant human full length HDAC6 expressed in baculovirus infected Sf9 insect cells
[5] = test system: Mycobacterium tuberculosis; assay: Antimycobacterial activity against Mycobacterium tuberculosis H37Rv; type: functional
CT26 = assay: Cytotoxicity against mouse CT26 cells after 5 days by hemocytometry; type: functional, cell-based; details: CT26, 120 h
MC-38 = assay: Cytotoxicity against mouse Colon 38 cells after 5 days by hemocytometry; type: functional, cell-based; details: MC-38, 120 h
HCT-116 [6] = assay: Antitumor activity against human HCT116 cells xenografted in BALB/c nude mouse assessed as tumor growth inhibition at 50 mg/kg, ip for 16 days; type: functional; details: HCT-116, ip, 384 h, read-out: TGI
HCT-116 [7] = assay: Antitumor activity against human HCT116 cells xenografted in BALB/c nude mouse assessed as tumor growth inhibition at 100 mg/kg, ip for 16 days; type: functional; details: HCT-116, ip, 384 h, read-out: TGI
Staphylococcus aureus = assay: Antibacterial activity against Staphylococcus aureus ATCC 6538P after 24 hrs by agar well diffusion method; type: functional
Escherichia coli = assay: Antibacterial activity against Escherichia coli ATCC 8739 after 24 hrs by agar well diffusion method; type: functional; details: ATCC 8739, 24 h

Compound	Ratio IC50 (Homo sapiens [1])	Ratio IC50 (Homo sapiens [2])	IC50 [3] [µM]	Ratio IC50 (Homo sapiens [4])	further results
COc1ccc(-c2cc(-c3cccs3)on2)cc1OC	–	–	–	–	IC50 (MCF7): 19.5 µM; IC50 (HeLa): 39.2 µM
CC(C)(C)OC(=O)Nc1ccc(-c2cc(C(=O)NCc3ccc(C(=O)NO)cc3)no2)cc1	> 500	> 500	< 0.01	> 500	–
CCOC(=O)c1cc(/C=C/c2ccnc3ccccc23)on1	–	–	–	–	MIC [5]: 0.2 µM (≈ 0.0589 µg/mL)
O=C(Nc1ccc(Cl)cc1)c1ccno1	–	–	–	–	IC50 (CT26): 2.5 µg/mL (≈ 11.2 µM); IC50 (MC-38): 2.5 µg/mL (≈ 11.2 µM)
CCCCCCC(=O)Nc1ccc(-c2cc(C(=O)NCc3ccc(C(=O)NO)cc3)no2)cc1	> 500	> 500	< 0.01	> 500	–
CCc1cc(-c2oncc2-c2ccc(OC)cc2)c(O)cc1OC	–	–	–	–	inhibition in vivo at 50 mg/kg (HCT-116 [6]): 49.5%; inhibition in vivo at 100 mg/kg (HCT-116 [7]): 70.3%
CC(C)(C)OC(=O)Nc1cccc(-c2cc(C(=O)NCc3ccc(C(=O)NO)cc3)no2)c1	> 500	> 500	< 0.01	> 500	–
O=[N+]([O-])c1ccc(-c2cc(C3CC3)no2)cc1	–	–	–	–	MIC (Staphylococcus aureus): 25 µg/mL (≈ 109 µM); MIC (Escherichia coli): 25 µg/mL (≈ 109 µM)
CCCCCCC(=O)Nc1cccc(-c2cc(C(=O)NCc3ccc(C(=O)NO)cc3)no2)c1	> 500	> 500	< 0.01	> 500	–

Source: ChEMBL document CHEMBL4118235, “The recent progress of isoxazole in medicinal chemistry” (Bioorg Med Chem, 2018)
